In patent US20230022157A1 (Achillion Pharmaceuticals, Inc., priority 2018, published 2023):

molecular target: T1, Human Factor D (Homo sapiens, UniProt P00746); assay: Human Factor D Assay; format: biochemical; settings: Human Factor D 80 nM, substrate Z-L-Lys-SBzl, assay of Example 3; read-out: IC50 (Stars)
T1 construct: purified from human serum; purchased Complement Technology, Inc; host or cells: human serum (natural protein, not recombinant)
Description: Human Factor D (purified from human serum, Complement Technology, Inc.) at 80 nM final concentration is incubated with test compound at various concentrations for 5 min at room temperature in 50 mM Tris, 1M NaCl, pH 7.5. A synthetic substrate Z-L-Lys-SBzl and DTNB (Ellman's reagent) are added to final concentrations of 100 μM each. […] IC50 values are calculated by nonlinear regression of complement Factor D reaction rates as a function of test compound concentration.

T1 sequence (P00746 26-253): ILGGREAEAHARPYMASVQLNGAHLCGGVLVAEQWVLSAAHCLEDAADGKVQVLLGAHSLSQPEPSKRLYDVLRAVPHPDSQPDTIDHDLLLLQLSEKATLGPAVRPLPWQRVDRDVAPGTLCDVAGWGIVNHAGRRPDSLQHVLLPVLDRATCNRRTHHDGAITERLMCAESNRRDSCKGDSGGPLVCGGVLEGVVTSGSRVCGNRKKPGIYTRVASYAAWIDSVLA

IC50 [µM] | Structure (SMILES)
< 1 | CC[C@@H](C)NC(=O)[C@@H]1C[C@@]2(C)C[C@H]2N1C(=O)Cn1nc(C(C)=O)c2cc(-c3cnc(C)nc3)ccc21 [Compound 11, (1R,3S,5R)-2-(2-(3-Acetyl-5-(2-methylpyrimidin-5-yl)-1H-indazol-1-yl)acetyl)-N—((R)-sec-butyl)-5-methyl-2-azabicyclo[3.1.0]hexane-3-carboxamide]
< 1 | CONC(=O)c1nn(CC(=O)N2[C@H](C(=O)Nc3nc(Br)ccc3C)C[C@@]3(C)C[C@@H]23)c2ccc(-c3cnc(C)nc3)cc12 [Compound 9, 1-(2-((1R,3S,5R)-3-((6-Bromo-3-methylpyridin-2-yl)carbamoyl)-5-methyl-2-azabicyclo[3.1.0]hexan-2-yl)-2-oxoethyl)-N-methoxy-5-(2-methylpyrimidin-5-yl)-1H-indazole-3-carboxamide]
< 1 | CC(=O)c1nn(CC(=O)N2[C@H](C(=O)N[C@@H](C)CCc3ccccc3)C[C@@]3(C)C[C@@H]23)c2ccc(-c3cnc(C)nc3)cc12 [Compound 12, (1R,3S,5R)-2-(2-(3-Acetyl-5-(2-methylpyrimidin-5-yl)-1H-indazol-1-yl)acetyl)-5-methyl-N—((S)-4-phenylbutan-2-yl)-2-azabicyclo[3.1.0]hexane-3-carboxamide]
< 1 | CC(=O)c1nn(CC(=O)N2[C@H](C(=O)N[C@H](C)CCc3ccccc3)C[C@@]3(C)C[C@@H]23)c2ccc(-c3cnc(C)nc3)cc12 [Compound 13, (1R,3S,5R)-2-(2-(3-Acetyl-5-(2-methylpyrimidin-5-yl)-1H-indazol-1-yl)acetyl)-5-methyl-N—((R)-4-phenylbutan-2-yl)-2-azabicyclo[3.1.0]hexane-3-carboxamide]
< 1 | CC(=O)c1nn(CC(=O)N2[C@H](C(=O)Nc3nc(Br)ccc3C)C[C@@]3(C)C[C@@H]23)c2c(C)cc(-c3cnc(C(=O)O)nc3)cc12 [Compound 39, 5-(3-acetyl-1-(2-((1R,3S,5R)-3-((6-bromo-3-methylpyridin-2-yl)carbamoyl)-5-methyl-2-azabicyclo[3.1.0]hexan-2-yl)-2-oxoethyl)-7-methyl-1H-indazol-5-yl)pyrimidine-2-carboxylic acid]

Structure (SMILES) | IC50 [µM]
CC(=O)c1nn(CC(=O)N2[C@H](C(=O)NCCc3ccc(Cl)cc3Cl)C[C@@]3(C)C[C@@H]23)c2c(C)cc(-c3cnc(C)nc3)cc12 [Compound 5, (1R,3S,5R)-2-(2-(3-Acetyl-7-methyl-5-(2-methylpyrimidin-5-yl)-1H-indazol-1-yl)acetyl)-N-(2,4-dichlorophenethyl)-5-methyl-2-azabicyclo[3.1.0]hexane-3-carboxamide] | < 1

same assay, conditions: Human Factor D 80 nM, substrate Z-L-Lys-SBzl; Table 2; read-out: IC50 (Stars)

IC50 [µM] | Structure (SMILES)
< 1 | CC(=O)c1nn(CC(=O)N2[C@H](C(=O)Nc3nc(Br)ccc3C)C[C@@]3(C)C[C@@H]23)c2c(C)cc(-c3cnc([C@H](C)O)nc3)cc12 (single isomer, unassigned) [Compound 141]
< 1 | CC(=O)c1nn(CC(=O)N2[C@H](C(=O)NCC3CCc4ccccc4C3)C[C@@]3(C)C[C@@H]23)c2c(C)cc(-c3cnc(C)nc3)cc12 (stereo partly drawn) [Compound 117, (1R,3S,5R)-2-{2-[3-acetyl-7-methyl-5-(2-methylpyrimidin-5-yl)indazol-1-yl]acetyl}-5-methyl-N-(1,2,3,4-tetrahydronaphthalen-2-ylmethyl)-2-azabicyclo[3.1.0]hexane-3-carboxamide]
< 1 | CC(=O)c1nn(CC(=O)N2[C@H]3CC[C@H](C3)[C@H]2C(=O)Nc2nc(C(F)(F)F)ccc2C)c2c(C)cc(-c3cnc(C(C)O)nc3)cc12 (stereo partly drawn) [Compound 171, (1S,3S,4R)-2-(2-(3-acetyl-5-(2-(1-hydroxyethyl)pyrimidin-5-yl)-7-methyl-1H-indazol-1-yl)acetyl)-N-(3-methyl-6-(trifluoromethyl)pyridin-2-yl)-2-azabicyclo[2.2.1]heptane-3-carboxamide]
< 1 | CC(=O)c1nn(CC(=O)N2[C@H](C(=O)NC(C)Cc3ccccc3F)C[C@@]3(C)C[C@@H]23)c2c(C)cc(-c3cnc(C)nc3)cc12 (stereo partly drawn) [Compound 186, (1R,3S,5R)-2-{2-[3-acetyl-7-methyl-5-(2-methylpyrimidin-5-yl)indazol-1-yl]acetyl}-N-[1-(2-fluorophenyl)propan-2-yl]-5-methyl-2-azabicyclo[3.1.0]hexane-3-carboxamide]
< 1 | CC(=O)c1nn(CC(=O)N2[C@H]3CC[C@H](C3)[C@H]2C(=O)Nc2nc(C(F)(F)F)ccc2C)c2ccc(-c3cnc4cc(C)nn4c3)cc12 [Compound 213, (1S,3S,4R)-2-(2-(3-acetyl-5-(2-methylpyrazolo[1,5-a]pyrimidin-6-yl)-1H-indazol-1-yl)acetyl)-N-(3-methyl-6-(trifluoromethyl)pyridin-2-yl)-2-azabicyclo[2.2.1]heptane-3-carboxamide]
< 1 | CC(=O)c1cn(CC(=O)N2[C@H](C(=O)Nc3nc(C(F)(F)F)ccc3C)C[C@@]3(C)C[C@@H]23)c2c(C)cc(-c3cnc(CF)nc3)cc12 [Compound 220, (1R,3S,5R)-2-(2-(3-acetyl-5-(2-(fluoromethyl)pyrimidin-5-yl)-7-methyl-1H-indol-1-yl)acetyl)-5-methyl-N-(3-methyl-6-(trifluoromethyl)pyridin-2-yl)-2-azabicyclo[3.1.0]hexane-3-carboxamide]
< 1 | CC(=O)c1nn(CC(=O)N2[C@H](C(=O)Nc3cncc(Br)n3)C[C@@]3(C)C[C@@H]23)c2c(C)cc(-c3cnc(C(C)O)nc3)cc12 (stereo partly drawn) [Compound 109, (1R,3S,5R)-2-(2-(3-acetyl-5-(2-(1-hydroxyethyl)pyrimidin-5-yl)-7-methyl-11H-indazol-1-yl)acetyl)-N-(6-bromopyrazin-2-yl)-5-methyl-2-azabicyclo[3.1.0]hexane-3-carboxamide]
1 to 10 | COCCOC[C@@]12C[C@@H](C(=O)Nc3nc(Br)ccc3C)N(C(=O)Cn3nc(C(C)=O)c4cc(-c5cnc(CO)nc5)cc(C)c43)[C@@H]1C2 [Compound 108, (1R,3S,5S)-2-(2-(3-acetyl-5-(2-(hydroxymethyl)pyrimidin-5-yl)-7-methyl-1H-indazol-1-yl)acetyl)-N-(6-bromo-3-methylpyridin-2-yl)-5-((2-methoxyethoxy)methyl)-2-azabicyclo[3.1.0]hexane-3-carboxamide]
< 1 | CC(=O)c1cn(CC(=O)N2[C@H]3CC[C@H](C3)[C@H]2C(=O)Nc2nc(C(F)(F)F)ccc2C)c2c(C)cc(-c3cnc(C)nc3)cc12 [Compound 177, (1S,3S,4R)-2-(2-(3-acetyl-7-methyl-5-(2-methylpyrimidin-5-yl)-1H-indol-1-yl)acetyl)-N-(3-methyl-6-(trifluoromethyl)pyridin-2-yl)-2-azabicyclo[2.2.1]heptane-3-carboxamide]

Further lines, the molecule ahead of its results:

Structure (SMILES) | IC50 [µM]
CC(=O)c1nn(CC(=O)N2[C@H](C(=O)Nc3cncc(Br)n3)C[C@@]3(C)C[C@@H]23)c2ccc(-c3cnc(CO)nc3)cc12 [Compound 64, (1R,3S,5R)-2-(2-(3-acetyl-5-(2-(hydroxymethyl)pyrimidin-5-yl)-1H-indazol-1-yl)acetyl)-N-(6-bromopyrazin-2-yl)-5-methyl-2-azabicyclo[3.1.0]hexane-3-carboxamide] | < 1
CC(=O)c1cn(CC(=O)N2[C@H](C(=O)Nc3cncc(Br)n3)C[C@@]3(C)C[C@@H]23)c2c(C)cc(-c3cnc(CO)nc3)cc12 [Compound 77, (1R,3S,5R)-2-(2-(3-acetyl-5-(2-(hydroxymethyl)pyrimidin-5-yl)-7-methyl-1H-indol-1-yl)acetyl)-N-(6-bromopyrazin-2-yl)-5-methyl-2-azabicyclo[3.1.0]hexane-3-carboxamide] | < 1
CC(=O)c1nn(CC(=O)N2[C@H](C(=O)Nc3nc(C(F)(F)F)ccc3C)C[C@@]3(C)C[C@@H]23)c2c(C)cc(-c3cnc(C(=O)O)nc3)cc12 [Compound 51, 5-(3-acetyl-7-methyl-1-(2-((1R,3S,5R)-5-methyl-3-((3-methyl-6-(trifluoromethyl)pyridin-2-yl)carbamoyl)-2-azabicyclo[3.1.0]hexan-2-yl)-2-oxoethyl)-1H-indazol-5-yl)pyrimidine-2-carboxylic acid] | < 1
CC(=O)c1cn(CC(=O)N2C[C@H]3C[C@H]3[C@H]2C(=O)Nc2nc(Br)ccc2C)c2c(C)cc(-c3cnc(CO)nc3)cc12 [Compound 79, (1R,2S,5S)-3-(2-(3-acetyl-5-(2-(hydroxymethyl)pyrimidin-5-yl)-7-methyl-11H-indol-1-yl)acetyl)-N-(6-bromo-3-methylpyridin-2-yl)-3-azabicyclo[3.1.0]hexane-2-carboxamide] | < 1
CC(=O)c1nn(CC(=O)N2C[C@H]3C[C@H]3[C@H]2C(=O)Nc2nc(Br)ccc2C)c2c(C)cc(-c3cnc(CO)nc3)cc12 [Compound 61, (1R,2S,5S)-3-(2-(3-acetyl-5-(2-(hydroxymethyl)pyrimidin-5-yl)-7-methyl-11H-indazol-1-yl)acetyl)-N-(6-bromo-3-methylpyridin-2-yl)-3-azabicyclo[3.1.0]hexane-2-carboxamide] | < 1
CC(=O)c1nn(CC(=O)N2[C@H](C(=O)Nc3cncc(Br)n3)C[C@@]3(C)C[C@@H]23)c2c(C)cc(-c3cnc(C(=O)O)nc3)cc12 [Compound 43, 5-(3-acetyl-1-(2-((1R,3S,5R)-3-((6-bromopyrazin-2-yl)carbamoyl)-5-methyl-2-azabicyclo[3.1.0]hexan-2-yl)-2-oxoethyl)-7-methyl-1H-indazol-5-yl)pyrimidine-2-carboxylic acid] | < 1
CC(=O)c1nn(CC(=O)N2[C@H]3CC[C@H](C3)[C@H]2C(=O)Nc2nc(Br)ccc2C)c2c(C)cc(-c3cnc(C)nc3)cc12 [Compound 99, (1S,3S,4R)-2-(2-(3-Acetyl-7-methyl-5-(2-methylpyrimidin-5-yl)-1H-indazol-1-yl)acetyl)-N-(6-bromo-3-methylpyridin-2-yl)-2-azabicyclo[2.2.1]heptane-3-carboxamide] | < 1
